Test system: B16-F10 melanoma cells
Assay: Measurement of melanin content in B16-F10 melanoma cells
Format: cell-based, mouse
Conditions: KA at 1 uM; FIG. 1
Procedure: B16-F10 melanoma cells were seeded into 25 cm^2 cell culture flask and incubated for 24 h. Then, 0.1 μM α-MSH was added and cells were treated with the aforementioned peptides at doses lower than their respective IC50 for a total of 48 h incubation. After washing twice with phosphate buffered saline, cells were dissolved in 1 mL of 1N NaOH. For measurement of melanin content, 100 μL aliquots of solution were then placed in 96-well plates and the absorbance was measured at 450 nm using microplate reader. Anti-melanin activity was expressed by the percentage of melanin to that of untreated melanoma cells. As positive control Kojic Acid (KA) was used at different concentrations (0.1, 1 and 10 μM).

Compound: O=c1cc(CO)occ1O [KA, kojic acid]
- reduction of melanin compared with the peptides of the invention (F22) at the same concentration: the reduction was substantially lower
